Source: ChEMBL document CHEMBL2203108, “Induction of microtubule-damage, mitotic arrest, Bcl-2 phosphorylation, Bak activation, and mitochondria-dependent caspase cascade is involved in human Jurkat T-cell apoptosis by aruncin B from Aruncus dioicus var. kamtschaticus” (Bioorg Med Chem Lett, 2012)
Values after ≈ are worked out from the molar mass of the structure shown. Active and inactive are the calls of the source. No cut-off for these calls is given here.

Columns and labels:
[1] = test system: Jurkat; test: Induction of apoptosis in human Jurkat T cells overexpressing Bcl2 assessed as cellular protrusions after 36 hrs by light microscopy; format: functional, cell-based
[2] = test system: Jurkat; test: Induction of cell cycle arrest in human Jurkat T cells overexpressing Neo assessed as G2/M phase cells after 36 hrs by flow cytometry (reference value: 4.7%); format: functional
[3] = test system: Jurkat; test: Induction of microtubule damage in human Jurkat T cells overexpressing Bcl2 after 36 hrs by immunostaining method; format: cell-based
[4] = test system: Jurkat; test: Induction of cell cycle arrest in human Jurkat T cells overexpressing Bcl2 assessed as G2/M phase cells after 36 hrs by flow cytometry (reference value: 2.4%); format: functional
[5] = test system: Jurkat; test: Induction of apoptosis in human Jurkat T cells overexpressing Neo assessed as cellular protrusions after 36 hrs by light microscopy; format: functional, cell-based
[6] = test system: Jurkat; test: Induction of apoptosis in human Jurkat T cells overexpressing Neo after 36 hrs by flow cytometry; format: functional, cell-based
[7] = test system: Jurkat; test: Induction of apoptosis in human Jurkat T cells overexpressing Bcl2 after 36 hrs by flow cytometry; format: functional, cell-based
[8] = test system: Jurkat; test: Induction of microtubule damage in human Jurkat T cells overexpressing Neo after 36 hrs by immunostaining method; format: cell-based
[9] = Cytotoxicity against human normal peripheral T cells assessed as cell viability at 60 ug/ml after 36 hrs by MTT assay relative to control
[10] = Cytotoxicity against human PHA-stimulated T cells assessed as cell viability at 60 ug/ml after 36 hrs by MTT assay relative to control; conditions: read-out: Activity
[11] = test system: Jurkat; test: Cytotoxicity against human Jurkat T cells assessed as cell viability at 60 ug/ml after 36 hrs by MTT assay relative to control; conditions: read-out: Activity
[12] = test system: Jurkat; test: cells; conditions: Homo sapiens, 36 h, read-out: Activity
Description: Cytotoxicity against human Jurkat T cells assessed as cell viability at 15 ug/ml after 36 hrs by MTT assay relative to control

[13] = test system: Jurkat; test: Cytotoxicity against human Jurkat T cells assessed as cell viability at 30 ug/ml after 36 hrs by MTT assay relative to control; conditions: read-out: Activity
[14] = Cytotoxicity against human normal peripheral T cells after 36 hrs by MTT assay; conditions: T-cell
[15] = test system: Jurkat; test: Induction of apoptosis in human Jurkat T cells overexpressing Neo assessed as cell viability at 30 ug/ml after 36 hrs by MTT assay; conditions: read-out: Activity
[16] = test system: Jurkat; test: Cytotoxicity against human Jurkat T cells after 36 hrs by MTT assay
[17] = cells; conditions: Homo sapiens, T-cell, 36 h, read-out: Activity
Description: Cytotoxicity against human PHA-stimulated T cells assessed as cell viability at 15 ug/ml after 36 hrs by MTT assay relative to control

[18] = test system: Jurkat; test: cells; conditions: Homo sapiens, 36 h, read-out: Activity; remark: listed apart in the source
Description: Induction of apoptosis in human Jurkat T cells overexpressing Bcl2 assessed as cell viability at 15 ug/ml after 36 hrs by MTT assay

[19] = test system: Jurkat; test: cells; conditions: Homo sapiens, 36 h, read-out: Activity; remark: listed apart in the source
Description: Induction of apoptosis in human Jurkat T cells overexpressing Neo assessed as cell viability at 7.5 ug/ml after 36 hrs by MTT assay

[20] = Cytotoxicity against human PHA-stimulated T cells after 36 hrs by MTT assay; conditions: T-cell
[21] = Cytotoxicity against human PHA-stimulated T cells assessed as cell viability at 30 ug/ml after 36 hrs by MTT assay relative to control; conditions: read-out: Activity
[22] = test system: Jurkat; test: Induction of apoptosis in human Jurkat T cells overexpressing Bcl2 assessed as cell viability at 30 ug/ml after 36 hrs by MTT assay; conditions: read-out: Activity
[23] = test system: Jurkat; test: cells; conditions: Homo sapiens, 36 h, read-out: Activity; remark: listed apart in the source
Description: Induction of apoptosis in human Jurkat T cells overexpressing Neo assessed as cell viability at 15 ug/ml after 36 hrs by MTT assay

[24] = test system: Jurkat; test: cells; conditions: Homo sapiens, 36 h, read-out: Activity; remark: listed apart in the source
Description: Induction of apoptosis in human Jurkat T cells overexpressing Bcl2 assessed as cell viability at 7.5 ug/ml after 36 hrs by MTT assay

Structure (SMILES)	Activity [1]	Activity [2]	Activity [3]	Activity [4]	Activity [5]	Activity [6]	Activity [7]	Activity [8]	also measured
COC(=O)Nc1nc2cc(C(=O)c3cccs3)ccc2[nH]1 [NOCODAZOLE]	Active	40.3%	Active	5.6%	Active	Active	inactive	Active	
CCOC(C)(C)/C=C1/C=C(C(=O)O)C(O)CO1 (configuration not stated) [ARUNCIN B]									viability at 36 h, 60 ug/ml [9]: 63.8%; viability at 60 µg/mL [10]: 25%; viability at 60 µg/mL [11]: 24.5%; viability at 15 µg/mL [12]: 67.7%; viability at 30 µg/mL [13]: 36.1%; IC50 [14]: > 60 µg/mL; viability at 30 µg/mL [15]: 44.9%; IC50 [16]: 22 µg/mL (≈ 90.8 µM); viability at 15 µg/mL [17]: 85.9%; viability at 15 µg/mL [18]: 71.5%; viability at 7.5 µg/mL [19]: 82%; IC50 [20]: 49 µg/mL (≈ 202 µM); viability at 30 µg/mL [21]: 68.5%; viability at 30 µg/mL [22]: 61.2%; viability at 15 µg/mL [23]: 57.4%; viability at 7.5 µg/mL [24]: 81.5%
O=c1c(-c2ccc(O)cc2)coc2cc(O)cc(O)c12 [GENISTEIN]	inactive	35%	inactive	6.7%	inactive	Active	inactive	inactive	
